This is an account of results in US6673800B2, “4,5,-dihydroisoxazolylakylpiperazine derivatives having selective biological activity at dopamine D3 or D4 receptor, and preparation thereof” (Korea Institute of Science and Technology, priority 2000, dated 2004).

Usually IC50 stands for the concentration at which inhibition is half-maximal.

Experiment [1] has as its target cloned human dopamine receptors D2 (Homo sapiens, UniProt P14416). Nature of the experiment: Binding affinity to dopamine receptor, radiolabeled ligand displacement (D2). Details: Affinity to Dopamine Receptors (% Inhibition) D2: dose or concentration left out as unconfirmed. The protocol: (§1) Binding affinities of the compounds for dopamine receptors were determined indirectly by their ability to displace radiolabeled ligand from cloned human dopamine receptors. Compounds were incubated in receptor suspension to compete with the. radiolabeled ligand. The receptor-bound radiolabeled ligand was separated by filtering through Wallac glass fiber filtermat (GF/C) using Inotech cell harvester of 96-well format. The radioactivity bound to filter was counted by Micro-β counter (Wallac).
(§2) The aliquots of cloned human dopamine receptors stored at −70° C. were suspended in assay buffer and the content of receptor in each aliquot was determined by Bio-Rad DC protein assay kit to give an optimal protein (receptor) concentration obtained by preliminary receptor binding assay. Receptor suspension adjusted to optimal concentration was aliquoted in proper volume for assay and stored at −70° C. Binding assays of every compound were performed in duplicate and each different buffer solution was used for optimal assay with each subtype of dopamine receptors. Receptor binding assays were carried out in 96-well plates. Receptor suspension of 100 μl was incubated at 27° C. for 30-60 min in a final volume of 0.25 ml reaction mixture containing 50 μl of hot-ligand and 10 μl of test compound.
(§3) After incubation, the reaction mixture was washed with ice-cold 50 mM Tris-acetate buffer by rapid filtration using a Inotech cell harvester (Inotech, Switzerland) through Whatman GF/C glass fiber filter presoaked in the assay buffer. The filter was covered with MeltiLex, sealed in a sample bag followed by drying in the microwave, and counted by MicroBeta Plus(Wallac, Finland) at a counting efficiency of 30-40%.

Experiment [2] addresses cloned human dopamine receptors D1 (Homo sapiens, UniProt P21728). Nature of the experiment: Binding affinity to dopamine receptor, radiolabeled ligand displacement (D1). Details: dose or concentration left out as unconfirmed. The protocol: as §1, §2, §3
Experiment [3] addresses T1, cloned human dopamine receptors D4 (Homo sapiens, UniProt P21917).
T1 sequence (P21917 1-419): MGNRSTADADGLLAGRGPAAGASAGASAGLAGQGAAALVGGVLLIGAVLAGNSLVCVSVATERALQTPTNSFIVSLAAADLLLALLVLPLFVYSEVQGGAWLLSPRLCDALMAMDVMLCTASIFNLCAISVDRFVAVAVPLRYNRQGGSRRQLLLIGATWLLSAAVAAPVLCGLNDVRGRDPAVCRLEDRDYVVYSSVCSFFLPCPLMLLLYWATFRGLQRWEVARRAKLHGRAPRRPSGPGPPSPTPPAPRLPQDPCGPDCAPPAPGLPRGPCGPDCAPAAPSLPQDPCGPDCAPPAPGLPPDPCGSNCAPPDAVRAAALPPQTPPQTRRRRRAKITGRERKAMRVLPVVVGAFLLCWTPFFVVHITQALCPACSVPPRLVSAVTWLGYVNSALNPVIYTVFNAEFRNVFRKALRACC
The experiment in a line: Binding affinity to dopamine receptor, radiolabeled ligand displacement (D4). Set-up: Affinity to Dopamine Receptors (% Inhibition) D4: dose or concentration left out as unconfirmed. The protocol:
as §1, §2, §3

In experiment [4] the target is cloned human dopamine receptors D3 (Homo sapiens, UniProt P35462). Nature of the experiment: Binding affinity to dopamine receptor, radiolabeled ligand displacement (D3). Details: Affinity to Dopamine Receptors (% Inhibition) D3: dose or concentration left out as unconfirmed. Here is the method:
as §1, §2, §3

Sequence of cloned human dopamine receptors D1 (P21728 whole entry): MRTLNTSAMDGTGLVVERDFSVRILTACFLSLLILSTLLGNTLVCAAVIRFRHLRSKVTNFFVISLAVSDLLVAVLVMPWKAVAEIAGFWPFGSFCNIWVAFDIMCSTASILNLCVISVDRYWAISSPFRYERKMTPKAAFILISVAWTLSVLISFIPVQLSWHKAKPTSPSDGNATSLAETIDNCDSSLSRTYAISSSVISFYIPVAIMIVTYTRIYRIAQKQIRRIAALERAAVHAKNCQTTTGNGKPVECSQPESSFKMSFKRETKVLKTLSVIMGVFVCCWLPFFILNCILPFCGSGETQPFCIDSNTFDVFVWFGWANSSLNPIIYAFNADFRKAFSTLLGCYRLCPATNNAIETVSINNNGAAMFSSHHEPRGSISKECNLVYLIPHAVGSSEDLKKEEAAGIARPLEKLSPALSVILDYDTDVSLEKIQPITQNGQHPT
Sequence of cloned human dopamine receptors D2 (P14416 whole entry): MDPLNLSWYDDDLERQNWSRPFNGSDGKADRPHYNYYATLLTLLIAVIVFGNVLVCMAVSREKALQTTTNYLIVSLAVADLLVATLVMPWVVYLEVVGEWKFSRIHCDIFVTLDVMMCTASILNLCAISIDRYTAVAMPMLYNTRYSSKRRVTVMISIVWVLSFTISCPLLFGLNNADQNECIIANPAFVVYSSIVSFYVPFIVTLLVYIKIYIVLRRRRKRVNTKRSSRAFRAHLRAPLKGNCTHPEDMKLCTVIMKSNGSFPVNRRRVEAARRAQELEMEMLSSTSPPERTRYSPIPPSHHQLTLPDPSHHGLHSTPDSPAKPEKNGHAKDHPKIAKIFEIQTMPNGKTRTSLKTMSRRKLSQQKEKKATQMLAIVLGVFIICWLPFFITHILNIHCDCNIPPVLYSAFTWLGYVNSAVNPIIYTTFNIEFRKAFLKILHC
Sequence of cloned human dopamine receptors D3 (P35462 whole entry): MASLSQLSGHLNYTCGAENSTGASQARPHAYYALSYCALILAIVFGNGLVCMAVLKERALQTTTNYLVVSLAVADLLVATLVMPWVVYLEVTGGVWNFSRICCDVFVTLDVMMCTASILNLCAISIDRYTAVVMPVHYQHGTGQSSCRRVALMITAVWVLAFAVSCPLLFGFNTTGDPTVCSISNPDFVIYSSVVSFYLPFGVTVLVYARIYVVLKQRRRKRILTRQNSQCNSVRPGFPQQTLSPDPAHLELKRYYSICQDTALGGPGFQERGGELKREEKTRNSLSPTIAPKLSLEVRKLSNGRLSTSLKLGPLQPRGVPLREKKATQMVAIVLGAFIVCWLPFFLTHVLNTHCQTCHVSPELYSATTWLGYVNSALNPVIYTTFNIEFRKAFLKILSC

With `CCOc1ccccc1N1CCN(CCCC2CC(c3ccc(OC)c(OC)c3)=NO2)CC1` (racemic) [Compound No. 29], in experiment [1], the “Affinity to Dopamine Receptors (% Inhibition) D2” value (shortened to “Affinity … (% Inhibition) D2”) turned out to be 83.5% and the IC50 came to 110 nM. For the same molecule, in experiment [2], the “Affinity to Dopamine Receptors (% Inhibition) D1” value (shortened to “Affinity … (% Inhibition) D1”) was determined as 40.1%. In experiment [3], the “Affinity to Dopamine Receptors (% Inhibition) D4” value (shortened to “Affinity … (% Inhibition) D4”) worked out at 57.4% and the 50% inhibitory concentration (IC50) is 108 nM.
For `CCOc1ccccc1N1CCN(CCCC2CC(c3cccs3)=NO2)CC1` (racemic) [Compound No. 30], in experiment [4], the “Affinity to Dopamine Receptors (% Inhibition) D3” value (shortened to “Affinity … (% Inhibition) D3”) was found to be 101.2% and the half-inhibitory concentration (IC50) is 4 nM. Further, in experiment [1], the “Affinity … (% Inhibition) D2” value is 88.2% and the half-maximal inhibitory concentration (IC50) was 470 nM. Moreover, the “Affinity … (% Inhibition) D1” value in experiment [2] worked out at 57.8%. Besides, in experiment [3], the “Affinity … (% Inhibition) D4” value was 102.3% and the half-maximal inhibitory concentration (IC50) was 11 nM.
Turning to `COc1ccccc1N1CCN(CCCCC2CC(c3ccccc3)=NO2)CC1` (racemic) [Compound No. 34], the “Affinity … (% Inhibition) D3” value in experiment [4] was 83.8%. Also, the “Affinity … (% Inhibition) D2” value in experiment [1] is listed as 58.3%. Moreover, the “Affinity … (% Inhibition) D1” value in experiment [2] is listed as 23.6%. The “Affinity … (% Inhibition) D4” value in experiment [3] stood at 100.1%.
For `COc1ccc(C2=NOC(CCCN3CCN(c4ccccc4)CC3)C2)cc1OC` (stereo not shown) [Compound No. 7], in experiment [4], the “Affinity … (% Inhibition) D3” value was found to be 102.5% and the 50% inhibitory concentration (IC50) was determined as 21 nM. Also, in experiment [1], the “Affinity … (% Inhibition) D2” value was 49.0% and the IC50 amounted to 9230 nM. The “Affinity … (% Inhibition) D1” value in experiment [2] came out at 9.0%. Moreover, in experiment [3], the “Affinity … (% Inhibition) D4” value is recorded as 103.9% and the 50% inhibitory concentration (IC50) came out at 71 nM.
As for `COc1ccc(C2=NOC(CCCN3CCN(c4ccccc4OC)CC3)C2)cc1OC` (stereo not shown) [Compound No. 9], in experiment [4], the “Affinity … (% Inhibition) D3” value was determined as 101.2% and the concentration for half-maximal inhibition (IC50) was 5 nM. In addition, in experiment [1], the “Affinity … (% Inhibition) D2” value came to 57.7% and the concentration for half-maximal inhibition (IC50) worked out at 1440 nM. Moreover, the “Affinity … (% Inhibition) D1” value in experiment [2] stood at 19.6%. Besides, in experiment [3], the “Affinity … (% Inhibition) D4” value is recorded as 104.4% and the IC50 is 23 nM.
Take `COc1ccccc1N1CCN(CCCC2CC(c3cccs3)=NO2)CC1` (stereo not shown) [Compound No. 10]: in experiment [4], the “Affinity … (% Inhibition) D3” value was found to be 99.9% and the IC50 turned out to be 19 nM. Moreover, in experiment [1], the “Affinity … (% Inhibition) D2” value is 56.0% and the IC50 amounted to 1930 nM. Further, in experiment [2], the “Affinity … (% Inhibition) D1” value stood at 19.9%. Also, in experiment [3], the “Affinity … (% Inhibition) D4” value amounted to 103.6% and the concentration for half-maximal inhibition (IC50) came to 34 nM.
